Data taken from the supplement of paper PMC10307832.

Tests used:
Test in all cases: relative viability (nuclei count vs DMSO), 5 days (fraction); higher = more cells survive
[1] = compound: CN(C/C=C/C1=CC=C(C=C1)Cl)CC2=CC=CC=C2N(CCO)S(=O)(=O)C3=CC=C(C=C3)OC [KN-93] + CS(=O)(=O)CCNCc1ccc(-c2ccc3ncnc(Nc4ccc(OCc5cccc(F)c5)c(Cl)c4)c3c2)o1 [Lapatinib] (partner 2 µM)
Outline: (§1)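 Medians of duplicate plates are given as relative viability. That measure is the nuclei count in treated wells divided by the count in vehicle wells. Counts were taken on 4× images of lung cancer cell lines in 1536-well plates, 5 days after pin-tool dosing the day after seeding with one drug alone or a fixed anchor-drug dose plus five library-drug doses (not always all listed) in √10 steps.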

[2] = compound: CN(C/C=C/C1=CC=C(C=C1)Cl)CC2=CC=CC=C2N(CCO)S(=O)(=O)C3=CC=C(C=C3)OC [KN-93] + CC(C)C[C@H](NC(=O)[C@H](Cc1ccccc1)NC(=O)c1cnccn1)B(O)O [Bortezomib] (partner 0.002 µM)
Outline: as §1

[3] = compound: CN(C/C=C/C1=CC=C(C=C1)Cl)CC2=CC=CC=C2N(CCO)S(=O)(=O)C3=CC=C(C=C3)OC [KN-93] + CC(=O)c1c(C)c2cnc(Nc3ccc(N4CCNCC4)cn3)nc2n(C2CCCC2)c1=O [Palbociclib] (partner 0.5 µM)
Outline: as §1

[4] = compound: CN(C/C=C/C1=CC=C(C=C1)Cl)CC2=CC=CC=C2N(CCO)S(=O)(=O)C3=CC=C(C=C3)OC [KN-93] + Nc1nc2[nH]cc(CCc3ccc(C(=O)N[C@@H](CCC(=O)O)C(=O)O)cc3)c2c(=O)[nH]1 [Pemetrexed] (partner 0.2 µM)
Outline: as §1

[5] = compound: CN(C/C=C/C1=CC=C(C=C1)Cl)CC2=CC=CC=C2N(CCO)S(=O)(=O)C3=CC=C(C=C3)OC [KN-93] + CS(=O)(=O)N1CCN(Cc2cc3nc(-c4cccc5[nH]ncc45)nc(N4CCOCC4)c3s2)CC1 [Pictilisib] (partner 1 µM)
Outline: as §1

Row | Cell Line | relative viability ([1]; first compound 0.08 µM) | relative viability ([1]; first compound 0.253 µM) | relative viability ([1]; first compound 2.53 µM) | relative viability ([1]; first compound 8 µM) | relative viability ([2]; first compound 0.08 µM) | relative viability ([2]; first compound 0.253 µM) | relative viability ([2]; first compound 2.53 µM) | relative viability ([2]; first compound 8 µM) | relative viability ([3]; first compound 0.08 µM) | relative viability ([3]; first compound 0.253 µM) | relative viability ([3]; first compound 2.53 µM) | relative viability ([3]; first compound 8 µM) | relative viability ([4]; first compound 0.08 µM) | relative viability ([4]; first compound 0.253 µM) | relative viability ([4]; first compound 2.53 µM) | relative viability ([4]; first compound 8 µM) | relative viability ([5]; first compound 0.08 µM) | relative viability ([5]; first compound 0.253 µM) | relative viability ([5]; first compound 2.53 µM) | relative viability ([5]; first compound 8 µM)
1 | 201T | 1.1 | 0.955 | 1.03 | 0.988 | 1.11 | 1.15 | 1.07 | 0.554 | 0.359 | 0.376 | 0.367 | 0.306 | 0.327 | 0.315 | 0.32 | 0.323 | 0.756 | 0.583 | 0.672 | 0.63
2 | A549 | 0.863 | 0.937 | 1.01 | 0.385 |  |  |  |  |  |  |  |  |  |  |  |  |  | 0.609 | 1 | 0.225
3 | A-427 | 1.21 | 1.28 | 1.05 | 0.878 | 1.04 | 0.99 | 0.982 | 0.852 | 0.555 | 0.533 | 0.511 | 0.41 | 1.05 | 1.01 | 0.941 | 0.776 | 0.732 | 0.69 | 0.635 | 0.512
4 | ABC-1 | 0.92 | 1.64 | 1.18 | 1.05 | 0.322 | 0.247 | 0.287 | 0.26 | 0.691 | 0.64 | 0.571 | 0.336 |  |  |  |  | 0.638 | 0.721 | 0.738 | 0.264
5 | BEN |  | 0.968 | 0.918 | 0.362 |  | 0.895 | 1.01 | 0.471 | 0.482 | 0.448 | 0.523 | 0.465 | 0.886 | 0.829 | 0.913 | 0.54 |  | 0.549 | 0.618 | 0.381
6 | CAL-12T | 0.616 | 0.574 | 0.716 | 0.496 | 1.02 | 1.09 | 0.993 | 0.803 | 0.37 | 0.52 | 0.232 | 0.3 | 1.08 | 1.25 | 0.93 | 1.01 | 0.498 | 0.367 | 0.605 | 0.326
7 | COR-L23 | 0.846 | 1.47 | 0.901 | 0.508 | 0.653 | 1.5 | 1.21 | 0.573 | 0.272 | 0.289 | 0.303 | 0.24 | 0.196 | 0.205 | 0.204 | 0.2 | 0.796 | 0.892 | 0.997 | 0.414
8 | COR-L 105 | 0.451 | 0.318 | 0.318 | 0.367 | 0.798 | 0.836 | 0.914 | 0.378 | 0.456 | 0.412 | 0.391 | 0.333 | 1.07 | 1.02 | 1.31 | 0.832 | 0.413 | 0.354 | 0.388 | 0.29
9 | ChaGo-K-1 |  |  |  |  | 1.33 | 1.18 | 1.15 | 0.536 | 0.899 | 1.02 | 0.946 | 0.829 | 0.264 | 0.259 | 0.246 | 0.258 | 1.27 | 0.851 | 0.718 | 0.454
10 | EKVX | 0.209 | 0.133 | 0.194 | 0.153 | 0.81 | 1.33 | 1.26 | 0.389 | 0.433 | 0.34 | 0.365 | 0.265 | 0.382 | 0.346 | 0.454 | 0.244 | 0.396 | 0.329 | 0.437 | 0.39
11 | EMC-BAC-2 | 0.852 | 0.956 | 0.943 | 0.625 | 0.908 | 1.12 | 1.12 | 0.58 | 0.564 | 0.53 | 0.537 | 0.46 | 0.452 | 0.484 | 0.497 | 0.437 | 0.477 | 0.608 | 0.542 | 0.433
12 | EPLC-272H | 0.925 | 1.03 | 0.981 | 0.774 | 0.863 | 1.39 | 0.982 | 0.752 | 0.321 | 0.279 | 0.354 | 0.346 | 0.422 | 0.274 | 0.285 | 0.211 | 0.338 | 0.365 | 0.294 | 0.276
13 | H3255 | 0.266 | 0.241 | 0.259 | 0.224 | 0.906 | 0.865 | 0.91 | 0.578 | 0.322 | 0.303 | 0.3 | 0.266 | 0.558 | 0.54 | 0.544 | 0.484 | 0.422 | 0.527 | 0.492 | 0.391
14 | HARA | 0.693 | 0.737 | 0.811 | 0.625 | 1.01 | 1.08 | 1.24 | 0.836 | 0.29 | 0.261 | 0.229 | 0.195 | 0.292 | 0.29 | 0.282 | 0.247 | 0.366 | 0.36 | 0.3 | 0.2
15 | HCC-15 | 0.625 | 1.01 | 1.02 | 0.685 | 0.838 | 1.27 | 1.17 | 0.634 | 0.671 | 0.82 | 0.735 | 0.513 | 0.218 | 0.209 | 0.21 | 0.215 | 0.547 | 0.866 | 0.861 | 0.524
16 | HCC-44 | 0.946 | 0.945 | 1.28 | 0.81 | 0.834 | 0.801 | 1.03 | 0.751 | 1.04 | 0.878 | 0.979 | 0.79 | 0.652 | 0.615 | 0.667 | 0.678 | 0.728 | 0.569 | 0.503 | 0.398
